Experimental data from US20220169654A1, “New Organic Compounds” (Servier Pharmaceuticals LLC, priority 2020, published 2022).

Key:
MAT2A homodimer = molecular target: T1, MAT2A homodimer (Homo sapiens, UniProt P31153); assay: MAT2A inhibition (biochemical, liberated phosphate, PiColorLock Gold); details: recombinant MAT2A homodimer; IC50 bin with Max Inh.; read-out: Enzyme Inhibition Bin
T1 construct: inferred from Ni sepharose purification with imidazole elution; made in house; host or cells: Sf9 insect cells, baculovirus (Bac to Bac, pFASTBAC1)
T1 sequence (P31153 whole entry): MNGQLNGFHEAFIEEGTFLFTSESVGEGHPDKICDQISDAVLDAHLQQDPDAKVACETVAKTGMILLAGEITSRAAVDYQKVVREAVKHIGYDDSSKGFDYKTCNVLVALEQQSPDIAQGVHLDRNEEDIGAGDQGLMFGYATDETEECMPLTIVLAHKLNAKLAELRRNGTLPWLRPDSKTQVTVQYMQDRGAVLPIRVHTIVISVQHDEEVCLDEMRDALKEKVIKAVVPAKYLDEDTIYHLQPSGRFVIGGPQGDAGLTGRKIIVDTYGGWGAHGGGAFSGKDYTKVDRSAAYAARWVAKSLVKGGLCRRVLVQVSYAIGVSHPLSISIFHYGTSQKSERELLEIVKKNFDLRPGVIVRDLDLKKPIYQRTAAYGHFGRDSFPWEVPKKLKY
Protocol: Mat2A protein was expressed by recombinant baculovirus in SF9 infected cells using the Bac to Bac system cloned into the pFASTBAC1 vector (Invitrogen, Carlsbad, Calif.). Recombinant MAT2A was isolated from the cell lysate of 150 g of infected cells using HP Ni sepharose column chromatography. Recombinant MAT2A homodimer was eluted with 250 and 500 mM imidazole, and fractions containing MAT2A were identified by sodium dodecyl sulfate polyacrylamide gel electrophoresis and pooled.
For determination of the inhibitory potency of compounds against the MAT2A homodimer, protein was diluted to 4 μg/mL in assay buffer (50 mM Tris, pH 8.0, 50 mM KCl, 15 mM MgCl2, 0.3 mM EDTA, 0.005% [w/v] bovine serum albumin [BSA]). Test compound was prepared in 100% dimethyl sulfoxide (DMSO) at 50× the desired final concentration. A 1 μL volume of compound dilution was added to 40 μL of enzyme dilution and the mixture was allowed to equilibrate for 60 minutes at 25° C. The enzymatic assay was initiated by the addition of 10 μL of substrate mix (500 μM ATP, pH 7.0, 400 μM L-methionine in 1× assay buffer), and the mixture was incubated for a further 60 minutes at 25° C. The reaction was halted and the liberated phosphate released by the enzyme in stoichiometric amounts by the production of S-adenosyl methionine (SAM) was measured using the PiColorLock Gold kit (Innova Biosciences, UK). Absolute product amounts were determined by comparison to a standard curve of potassium phosphate buffer, pH 8.0. The compounds were also tested in a secondary assay utilizing 1 μg/mL MAT2A and incubated for 5 hours at 25° C. before halting and processing as above.
Specific compounds disclosed herein were tested in the foregoing assay and they were determined to inhibit MAT2A with an IC50. See, Table 1 below.

HCT116 MTAP−/− = assay: Inhibition of cellular proliferation, 4 days, Cell Titer Glo, HCT116 MTAP−/−; assay type: cell-based; details: Homo sapiens, HCT-116, 96 h, IC50 bin with Max Inh., read-out: 4 Day Relative Growth Inhibition (MTAP −/−)
Protocol: (§1) Test compound impact on cancer cell growth was assessed by treating cancer cells with compound for 4 days and then measuring proliferation using an ATP-based cell proliferation readout (Cell Titer Glo, Promega Corporation).
(§2) In a typical assay an isogenic pair of HCT116 human colon carcinoma cell lines which vary only in MTAP deletion status (HCT116 MTAP+/+ and HCT116 MTAP−/−) were plated in 96-well dishes at appropriate cell density. Following 24 hours, cells were then treated with the candidate MAT2A inhibitor. Prior to addition to cells, the compound was first serially diluted in 100% DMSO, typically as a 3-fold serial dilution starting at 500× top dose with 10 dose points including DMSO only control. Compound was then transferred to a working stock plate in cell culture media by adding 5 μL of compound in DMSO to 495 μL of cell culture media. This working stock was then added to cells via a further 5-fold dilution, by adding 25 μL of working stock to 100 μL of cells in culture media. Following compound addition, cells were incubated at 37° C./5% CO2 for 4 days.
(§3) To measure inhibition of cellular proliferation, cells were allowed to equilibrate to room temperature for 30 minutes, and were then treated with 125 μL of Cell Titer Glo reagent. The plate was then covered with aluminum foil and shaken for 15 minutes to ensure complete mixing and full cell lysis. Luminescent signal was then measured using a plate-based luminometer Veritas version 1.9.2 using ATP standard curve to confirm assay reproducibility from run to run. This luminescence measure was converted to a proliferation index by subtracting from each data point the ATP luminescence signal measured from a bank (no cells) well and dividing by the ATP luminescence signal measured in 0.2% DMSO control well adjusted for signal in blank well. Compound activity was then represented as a percentage change in proliferation relative to a within-plate DMSO control against log 10 of compound concentration in molar (M) units.
(§4) Specific compounds disclosed herein were tested in the foregoing assay and they were determined to inhibit cellular proliferation with an IC50. See, Table 1 below.

[1] = system: SAM in HCT116 human colon carcinoma cell line with MTAP gene deleted (MTAP −/−); assay: Cellular assay of target engagement (SAM), LC-MS/MS, 72 hrs; assay type: cell-based; details: HCT-116, IC50 bin with Max Inh., read-out: Cell 72 h SAM Inhibition (MTAP −/−)
Protocol: Measurement of MAT2A activity in cells was made by direct quantitation of the abundance of the product of its enzymatic activity, SAM. Cancer cells were treated with candidate MAT2A inhibitors for a suitable incubation period, and the cells were then lysed using a reagent which quenched any further enzyme activity. Soluble metabolites including SAM were collected and SAM itself was directly measured from the lysate using quantitative LC-MS/MS.
A typical assay was performed using an HCT116 human colon carcinoma cell line which was genetically engineered to delete the MTAP gene (commercially available from Horizon Discovery). This cell line was utilized because it was determined that loss of the MTAP gene predicts sensitivity to MAT2A inhibitors. Cells were plated in 96-well dishes at appropriate cell density. Following 24 hours, cells were then treated with the candidate MAT2A inhibitor. Prior to addition to cells, the compound was first serially diluted in 100% DMSO, typically as a 3-fold serial dilution starting at 500× top dose with 10 dose points including DMSO only control. Compound was then transferred to a working stock plate in cell culture media by adding 5 μL of compound in DMSO to 495 μL of cell culture media. This working stock was then added to cells via a further 5-fold dilution, by adding 25 μL of working stock to 100 μL of cells in culture media. Following compound addition, cells were incubated at 37° C./5% CO2 for 72 hrs.
To quantitate SAM levels following compound treatment, cells were gently washed once in ammonium carbonate buffer (75 mM at pH 7.4), placed on dry ice, and lysed with metabolite extraction buffer (80% cold methanol and 20% water (v/v) with acetic acid at 1M final concentration with 200 ng/mL deuterated d3-SAM as internal control). Following centrifugation at 4° C. at 3,200 rpm for 30 minutes, the supernatant was collected and stored at −80° C. until analysis by Liquid Chromatography with tandem Mass Spectrometry (LC-MS/MS). LC-MS/MS analysis was performed using an API6500 Mass Spectrometer (Sciex, Framingham, Mass., USA) operating in positive ion spray mode and equipped with a Waters UPLC Acquity (Waters, Milford, Mass., USA) BEH Amide column. Multiple Reaction Monitoring data was acquired for SAM and the d3-SAM standard, using a mass transition pair at m/z 399.2→250.1 and 402.2→250.1, respectively. In a typical LC-MS/MS analysis, the initial flow rate was 0.5 ml/min of 25% mobile phase A (acetonitrile and water at 5:95 (v/v) with 1% formic acid and 10 mM ammonium acetate) and 75% mobile phase B (acetonitrile and water at 95:5 (v/v) with 1% formic acid and 10 mM ammonium acetate), 0.2-0.5 minutes with 75%-35% mobile phase B, 25%-65% mobile phase A, at 0.5 min 65% mobile phase A and 35% mobile phase B, 1.0-1.1 minutes with 35%-75% mobile phase B, 65%-25% mobile phase A, at 1.1 min 25% mobile phase A and 75% mobile phase B with a total run time of 1.5 minutes.
Specific compounds disclosed herein were tested in the foregoing assay and they were determined to inhibit SAM with an IC50. See, Table 1 below.

HCT116 MTAP+/+ = assay: Inhibition of cellular proliferation, 4 days, Cell Titer Glo, HCT116 MTAP+/+; assay type: cell-based; details: Homo sapiens, HCT-116, 96 h, IC50 bin with Max Inh., read-out: 4 Day Relative Growth Inhibition (MTAP +/+)
Protocol: as §1, §2, §3, §4

| Structure (SMILES) | IC50 (MAT2A homodimer) [nM] | IC50 (HCT116 MTAP−/−) [nM] | IC50 [1] [nM] | IC50 (HCT116 MTAP+/+) [nM] |
| --- | --- | --- | --- | --- |
| Cn1cc2cc(-n3nc4c(C#N)cn(CC5CCC5)c4c(-c4ccc(C5CC5)nc4)c3=O)ccc2n1 [Example 159, 5-(cyclobutylmethyl)-4-(6-cyclopropylpyridin-3-yl)-2-(2-methyl-2H-indazol-5-yl)-3-oxo-3,5-dihydro-2H-pyrrolo[3,2-c]pyridazine-7-carbonitrile] | < 100 | 100 to 1000 | < 100 | > 1000 |
| Cn1cc2cc(-n3nc4c(C#N)cn(CC5CC5)c4c(-c4ccc(C5CC5)nc4)c3=O)ccc2n1 [Example 107, 5-(cyclopropylmethyl)-4-(6-cyclopropylpyridin-3-yl)-2-(2-methyl-2H-indazol-5-yl)-3-oxo-3,5-dihydro-2H-pyrrolo[3,2-c]pyridazine-7-carbonitrile] | < 100 | < 100 | < 100 | 100 to 1000 |
| Cc1ccc(-c2c(=O)n(-c3ccc4nn(C)cc4c3)nc3c(C#N)cn(CCC(F)(F)F)c23)cn1 [Example 108, 2-(2-methyl-2H-indazol-5-yl)-4-(6-methylpyridin-3-yl)-3-oxo-5-(3,3,3-trifluoropropyl)-3,5-dihydro-2H-pyrrolo[3,2-c]pyridazine-7-carbonitrile] | 100 to 1000 | > 1000 | 100 to 1000 | 100 to 1000 |
| Cc1c(C#N)c2nn(-c3ccc4nn(C)cc4c3)c(=O)c(-c3ccc(OC(F)F)cc3)c2n1CC1CC1 [Example 264, 5-(cyclopropylmethyl)-4-(4-(difluoromethoxy)phenyl)-6-methyl-2-(2-methyl-2H-indazol-5-yl)-3-oxo-3,5-dihydro-2H-pyrrolo[3,2-c]pyridazine-7-carbonitrile] | < 100 | < 100 | < 100 | > 1000 |
| C[C@H](O)c1cn(CC2CC2)c2c(-c3ccc(C4CC4)nc3)c(=O)n(-c3ccc4nn(C)cc4c3)nc12 [Example 250, (S)-5-(cyclopropylmethyl)-4-(6-cyclopropylpyridin-3-yl)-7-(1-hydroxyethyl)-2-(2-methyl-2H-indazol-5-yl)-2,5-dihydro-3H-pyrrolo[3,2-c]pyridazin-3-one] | < 100 | < 100 | < 100 | > 1000 |
| Cn1nc2ccc(-n3nc4c(C(F)(F)F)cn(CC5CC5)c4c(-c4ccc(C5CC5)nc4)c3=O)cc2c1C(F)(F)F [Example 242, 5-(cyclopropylmethyl)-4-(6-cyclopropylpyridin-3-yl)-2-(2-methyl-3-(trifluoromethyl)-2H-indazol-5-yl)-7-(trifluoromethyl)-2,5-dihydro-3H-pyrrolo[3,2-c]pyridazin-3-one] | < 100 | 100 to 1000 | 100 to 1000 | 100 to 1000 |
| Cn1cc2cc(-n3nc4ccn(CC5CC5)c4c(-c4ccc(C#N)cc4)c3=O)ccc2n1 [Example 154, 4-(5-(cyclopropylmethyl)-2-(2-methyl-2H-indazol-5-yl)-3-oxo-3,5-dihydro-2H-pyrrolo[3,2-c]pyridazin-4-yl)benzonitrile] | < 100 | 100 to 1000 | 100 to 1000 | 100 to 1000 |
| Cn1cc2cc(-n3nc4ccn(CCC(F)(F)F)c4c(-c4ccc(OC(F)F)cc4)c3=O)ccc2n1 [Example 105, 4-(4-(difluoromethoxy)phenyl)-2-(2-methyl-2H-indazol-5-yl)-5-(3,3,3-trifluoropropyl)-2,5-dihydro-3H-pyrrolo[3,2-c]pyridazin-3-one] | < 100 | < 100 | < 100 | > 1000 |
| [2H]C([2H])([2H])Oc1ccc(-n2nc3ccn(CC4CC4)c3c(-c3ccc(C4CC4)nc3)c2=O)cc1 [Example 122, 5-(cyclopropylmethyl)-4-(6-cyclopropylpyridin-3-yl)-2-(4-(methoxy-d3)phenyl)-2,5-dihydro-3H-pyrrolo[3,2-c]pyridazin-3-one] | < 100 | < 100 | < 100 | > 1000 |
| Cn1cc2cc(-n3nc4c(C#N)cn(CC5CC5)c4c(-c4ccc(C5(C)CC5)nc4)c3=O)ccc2n1 [Example 254, 5-(cyclopropylmethyl)-2-(2-methyl-2H-indazol-5-yl)-4-[6-(1-methylcyclopropyl)pyridin-3-yl]-3-oxo-2H,3H,5H-pyrrolo[3,2-c]pyridazine-7-carbonitrile] | < 100 | 100 to 1000 | 100 to 1000 | 100 to 1000 |
| Cn1cc2cc(-n3nc4c(C#N)c(Cl)n(CC5CC5)c4c(-c4ccc(C5CC5)nc4)c3=O)ccc2n1 [Example 251, 6-chloro-5-(cyclopropylmethyl)-4-(6-cyclopropylpyridin-3-yl)-2-(2-methyl-2H-indazol-5-yl)-3-oxo-3,5-dihydro-2H-pyrrolo[3,2-c]pyridazine-7-carbonitrile] | < 100 | < 100 | < 100 | 100 to 1000 |
